From article PMC10743388, “Jacalin-Curcumin Complex Sensitizes the Breast Cancer MDA-MB-231 Cell Line” (International Journal of Molecular Sciences, 2023)

Biological target: T1, jacalin (Artocarpus integer, UniProt P18670+P18671)
T1 construct: native tetrameric lectin isolated from jackfruit seeds; labelled with Red-NHS 2nd Generation (Alexa Fluor 647) for MST
Test: microscale thermophoresis with labelled jacalin; steady-state fluorescence titration also gave KD […]
Type: binding

T1 sequence (P18670 whole entry): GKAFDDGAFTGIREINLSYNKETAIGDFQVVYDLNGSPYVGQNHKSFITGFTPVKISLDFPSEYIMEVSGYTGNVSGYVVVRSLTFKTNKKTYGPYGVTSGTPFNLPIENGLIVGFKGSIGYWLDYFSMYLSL
T1 sequence (P18671 whole entry): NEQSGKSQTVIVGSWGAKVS

`COc1cc(/C=C/C(=O)CC(=O)/C=C/c2ccc(O)c(OC)c2)ccc1O` [curcumin] gave a Kd of 450 nM.
